Experimental data reported in article PMC12549899 (Nature Communications, 2025).
Values joined by “and” are separate entries in the source; they are usually repeats but may differ in a detail not shown here. Identical values can stand only once.

Molecular target: T1, DrOTOP1 A274W (Danio rerio, UniProt Q7ZWK8, A274W)
T1 construct: A previously generated codon-optimized full-length DrOTOP1[8]; (UniProt: Q7ZWK8) construct; expressed in transfected cells; host or cells: HEK-293 (CRL-1573, ATCC)
T1 sequence (Q7ZWK8 1-586 A274W): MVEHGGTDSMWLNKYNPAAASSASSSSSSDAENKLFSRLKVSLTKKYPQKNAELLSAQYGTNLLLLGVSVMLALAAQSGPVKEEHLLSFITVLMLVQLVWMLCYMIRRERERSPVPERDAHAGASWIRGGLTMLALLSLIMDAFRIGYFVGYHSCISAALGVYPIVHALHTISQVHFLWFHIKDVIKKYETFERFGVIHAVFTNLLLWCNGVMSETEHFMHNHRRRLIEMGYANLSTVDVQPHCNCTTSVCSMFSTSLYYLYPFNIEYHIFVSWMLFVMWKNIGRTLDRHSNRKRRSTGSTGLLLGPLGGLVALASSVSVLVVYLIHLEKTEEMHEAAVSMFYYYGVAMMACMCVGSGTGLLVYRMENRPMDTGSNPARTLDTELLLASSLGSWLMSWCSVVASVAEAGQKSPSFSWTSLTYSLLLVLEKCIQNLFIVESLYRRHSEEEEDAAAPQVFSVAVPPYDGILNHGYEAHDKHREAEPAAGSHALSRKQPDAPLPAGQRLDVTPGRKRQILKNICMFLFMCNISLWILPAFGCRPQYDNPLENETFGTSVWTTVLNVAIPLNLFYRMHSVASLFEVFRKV
Assay: Whole-cell patch-clamp, inhibition of acid-evoked currents, DrOTOP1 A274W
Format: cell-based, zebrafish (Danio rerio)
From the text: We next tested mutations of the central site (L205W, A274W, F277A, E384A L385W, A388W). V201W and S389W, two additional central site mutations, were excluded from the study due to complete loss of channel activity. Mutation of E384 to alanine is expected to disrupt potential hydrogen bonding with C2.2. Of note, E384 is one of the few charged residues in the central pocket and could form a salt bridge with K281, that could also be affected by the mutation. Additionally, in our DrOTOP1_C2.2 structure, we observed that F277 underwent a substantial rearrangement, likely to avoid steric clash and accommodate C2.2 binding. Thus, we introduced the F277A mutation to test if removing this steric clash would enhance C2.2 inhibition.
HEK-293 cells (CRL-1573, ATCC) were cultured in DMEM (Thermofisher 11995073) containing 10% fetal bovine serum (Life Technology 16000044) and Penicillin-Streptomycin (100 I.U./mL) and (100 µg/mL), respectively. Cells were transfected with WT DrOTOP1 or mutant DrOTOP1 channels in 35 mm petri dishes, with ~ 500 ng DNA and 2 μL TransIT-LT1 transfection reagent (Mirus Bio Corporation, Cat # MIR2300) following the manufacturer’s protocol. All constructs were subcloned into a pcDNA3.1 vector that adds an N-terminal fusion tag consisting of an octahistidine tag followed by eGFP, a Gly-Thr-Gly-Thr linker and a 3C protease cleavage site ([…]) followed by WT DrOTOP1, WT mOTOP1, WT hOTOP1, or mutated DrOTOP1. Point mutations were generated via In-Fusion Cloning (Takara) using single-stranded DNA primers generated through IDT and sequence confirmed by Sanger sequencing (GeneWiz).
Whole-cell patch-clamp recording was performed as previously described[6],[22],[25]. Recordings were made with an Axopatch 200B amplifier, digitized with a Digidata 1322a 16-bit data acquisition system, acquired with pClamp 8.2 and analyzed with Clampfit 10 (Molecular Devices). Recordings were sampled at 5 kHz and filtered at 1 kHz. Patch Pipettes with resistance of […] were fabricated from borosilicate glass, and only recordings with a giga-Ohm seal were used in analysis. Membrane potential was held at −80 mV for the duration of recordings. At the beginning of recordings and between, cells were washed with Tyrode’s solution (see below). Once a giga-Ohm seal was reached, cells were lifted and placed in front of microcapillary tubes controlled by a Fast-Step perfusion system (Warner Instruments) so that extracellular solutions could be rapidly exchanged during each experiment.
Standard Tyrode’s solution consisted of 145 mM NaCl, 5 mM KCl, MgCl2, 2 mM CaCl2, 20 mM D-Glucose, and 10 mM HEPES (for pH 7.4). All other extracellular patch-clamp solutions contained 160 mM NMDG-Cl, 2 mM CaCl2, and the following buffers: 10 mM HEPES (for pH 7.4), 10 mM MES (for pH 6.5-5.5), 10 mM CHES for pH 10, and 10 mM HomoPIPES for (pH 5.0). pH adjusted with HCl. When adding compounds to extracellular solutions, the concentration of DMSO in solution was never higher than 0.3%. […]
All data are presented as mean ± SEM unless otherwise noted, and each data point represents an independent replicant. Inhibition of compounds was quantified as ((I2peak-I1)/(I2peak))*100, where I1 is the current immediately before wash-off and I2peak is the maximum recovered current (Supplementary Fig. 2). Hill coefficients were determined by the following equation: Y = Bmax*X^h/(Kd^h + X^h). […]

In the case of `C=C(C)COc1ccccc1NC(=O)c1nc[nH]c1C` [C2.2], the inhibition at 10 µM (10 µM, single cells or mean) is reported as 74.6%, the Inhibition of currents (10 µM, single cells or mean, mean) is reported as 72.36% and the Inhibition of currents (10 µM, single cells or mean, single cells) is reported as 71.3399% and 74.8032% and 68.9769% and 72.0779%.

For `O=C(/C(=N\O)c1ccccc1)c1ccccc1` [C11, benzil monoxime], the Inhibition of currents (100 µM, single cells) was 70.9091% and 73.0647% and 75.9259% and 71.7822% and the inhibition at 100 µM (100 µM, single cells) was 76.2%.
